# Measured values taken from US8778643B2, “Methods for increasing lipid levels and producing triacylglycerols in algae” (priority 2012, dated 2014).
# Like-named read-outs stand apart in the source and are kept apart here.
# How the values were obtained:
# Nannochloris sp. [1] = assay: Microplate assay: growth (absorbance 680 nm) and intracellular lipids (Nile Red fluorescence); assay type: cell-based; conditions: for Nile Red Fluorescence % Increase: initial screening, p<0.05; for % Increase based on Nile Red Fluorescence Intensity: dissolved in water, added t=day 0
# [2] = target: histone lysine methyltransferase G9a (Homo sapiens, UniProt Q96KQ7); conditions: cited from earlier work
# Nannochloropsis oculata [3] = system: Nannochloropsis oculata
# Method: Stock cultures were aerated by stirring with bubbling air (homemade manifold with Petco air pump, 2-4% CO2) or by orbital shaking (Thermo Scientific MAXQ 2000) at a constant speed of 150 rpm at 22±3° C. with a 16:8 hour light/dark cycle. Stocks were kept at stationary phase for use. Algae were prepared as dictated by culture center.
# Compounds were selected based on reported biological activity in non-microalgae organisms. To ensure that compounds retained their quality, they were stored under advised conditions after purchasing from the manufacturer. Solutions of all assay compounds were prepared as 10 mM stock solutions by dissolving in DMSO in 2-dram amber vials and then stored in darkness −20° C. 96-well PCR plates were used to create a stock plate layout that was then transferred to the algae microplates. A plate map was used to distribute each compound to a well based on molecule name, collection number, and CAS number. For 20 μM and 200 nM assay plates, 10 mM compound stock in DMSO was diluted into plate maps of 5 mM and 50 μM assay stocks, respectively.
# All materials for assay experiments were autoclaved before each use to maintain axenic algae cultures. Algae species were checked for homogeneity using a TS-100 light microscope (Nikon, Japan). […] Diluted stock solutions were made immediately prior to use for consistency and optimal plate growth. Cell density was measured on a Thermo Scientific Genesys 10S Vis Spectrophotometer (ThermoFisher, San Jose), using a 1 mL cuvette at 680 nm.
# Plates were originally run in triplicate, before replicates were increased to quadruplicate, along with a separate control plate to compare growth. Due to extensive evaporation in exterior wells over time, our unique algae plate layout was designed to use the 60 interior wells out of 96 wells for the experiment. The 36 outer wells were filled with Millipore water and media to prevent evaporation and edge effects in the inner algae wells, as well as serve as blanks. The 60 wells with algae contained a total volume of 251 μL (100 μL of media+DMSO compound stock +150 μL dilute algae stock). For 20 μM and 200 nM assay plates, 10 mM compound stock in DMSO is diluted into plate maps of 5 mM and 50 μM assay stocks, respectively. […] Plates were parafilmed during growth to limit the amount of evaporation that can occur. Plates were numbered, and numerically ordered to ensure they got the same shaker space.
# The shakers are kept at a constant shaking of 150 rpm. Ambient temperature is 22±3° C.
# [4] = target: phosphatidylinositol-specific phospholipase C (PI-PLC); conditions: cited from earlier work
# [5] = system: Phaeodactylum tricornutum
# Method: The nonpolar algal extracts were harvested from 500 mL cultures when indicated on growth curves, a minimum of 3 days into stationary phase. […] Cells were crushed and nonpolar lipids were extracted by sonication (Fisher Scientific Model 120 Sonic Dismembrator, ThermoFisher, San Jose) for 1 minute in chloroform, followed by chloroform-methanol extractions, washed with PBS butter, and dried under vacuum.^55-60 The crude non-polar algae extracts were then analyzed by ^1H Nuclear Magnetic Resonance (^1H NMR) for verification of TAG presence and examination of the purity of the extract (determination of level of chlorophyll). […]
# After the initial weight was recorded, the nonpolar extract set aside for transesterification was dissolved in 3.0 mL of 0.6 M sulfuric acid in methanol and stirred vigorously at 60° C. for 45 minutes. […]
# We developed a quick and robust method to screen if the screened compound effect fatty acid saturation levels using ^1H NMR spectroscopy. The amount of saturated fatty acids (SFA), monounsaturated fatty acids (MUFAs), and polyunsaturated fatty acids (PUFAs) was determined using peak area ratios.
# Calculated based on ^1H NMR integral ratios for the proton signals for the methyl group of PUFA components vs. the methyl groups of monounsaturated and saturated components.
# [6] = system: Phaeodactylum tricornutum; assay: 500 mL batch culture: growth, dry weight and lipid extract (gravimetric); assay type: cell-based; conditions: P. tricornutum, 500 mL culture; for Lipid content: dried lipid extract per dry biomass; for Change in Lipids: gravimetric, relative to averaged control without DMSO; for Specific Growth Rate: mid-exponential growth phase
# Method: (§1) Batch cultures were grown in 500 mL Pyrex media bottles with stirring and air bubbling (homemade manifold with Petco air pump, 2-4% CO2). Incoming air was sterile filtered by Polyvent 4 disposable filters (Whatman, Kent, UK). […] To minimize bacterial contamination, all equipment and materials were autoclaved and media was added to flask in a Purifier Vertical Clean bench (Labconco, Kansas City, Mo.). […] The amount of DMSO is standardized for all experiments to 0.4%.
# (§2) For all compound cultures, the 2 mL DMSO stock solution was added to media (without algae) first and mixed well. Control cultures were grown without DMSO. DMSO controls consisted of 0.04-1.0% DMSO. After the addition of algae and media, the container was plugged with a bug stopper vented closure cap and mixed thoroughly. Absorbance is measured immediately for Day 0 analysis. Afterward, absorbance was measured every 1-2 days with a cuvette (1 mL volume) on the Thermo Scientific Genesys 10S V is Spectrophotometer (ThermoFisher, San Jose) at 680 nm.
# (§3) Batch cultures were also repeated in triplicate and compared to a control culture grown at the same time. Algae were harvested and lipids were extracted for gravimetric analysis.
# (§4) The nonpolar algal extracts were harvested from 500 mL cultures when indicated on growth curves, a minimum of 3 days into stationary phase.
# (§5) Cell density was monitored by measuring absorbance at 680 nm every 1-2 days.
# (§6) 500-mL cultures were harvested 6 days into stationary phase based on absorbance values. Cells were concentrated by centrifugation and lyophilization to remove water. Nonpolar lipids were extracted by sonication and solvent (chloroform-methanol and PBS buffer). […] Changes in lipid levels for batch cultures were determined by crude lipid extract mass.
# [7] = system: fatty acid and sterol synthesis; conditions: cited from earlier work
# [8] = target: fatty acid amide hydrolase (Homo sapiens, UniProt O00519); conditions: cited from earlier work
# Cdk2/cyclin A = Cdk2/cyclin A (Homo sapiens, UniProt P24941); conditions: CDK2/A; cited from earlier work
# CDK4/cyclin D1 = CDK4/cyclin D1 (Homo sapiens, UniProt P11802); conditions: cited from earlier work
# [9] = system: Phaeodactylum tricornutum; assay: Microplate assay: growth (absorbance 680 nm) and intracellular lipids (Nile Red fluorescence); assay type: cell-based
# Nannochloropsis salina [10] = system: Nannochloropsis salina
# PTP1b = PTP1b (Homo sapiens, UniProt P18031); conditions: cited from earlier work
# Nannochloropsis salina [11] = assay: 500 mL batch culture: growth, dry weight and lipid extract (gravimetric); assay type: cell-based; conditions: for Lipid productivity / Lipid content / Change in Lipids / Specific Growth Rate: N. salina; for Lipid content: dried lipid extract per dry biomass; for Change in Lipids: gravimetric, relative to averaged control without DMSO; for Specific Growth Rate: mid-exponential growth phase
# Method: as §1, §2, §3
# Cultures were harvested at day 6 in stationary phase. Cultures were pelleted, lyophilized, and extracted side-by-side. The experiment was performed in triplicate.
# The nonpolar algal extracts were harvested from 500 mL cultures when indicated on growth curves, a minimum of 3 days into stationary phase. […] Cells were crushed and nonpolar lipids were extracted by sonication (Fisher Scientific Model 120 Sonic Dismembrator, ThermoFisher, San Jose) for 1 minute in chloroform, followed by chloroform-methanol extractions, washed with PBS butter, and dried under vacuum.^55-60 The crude non-polar algae extracts were then analyzed by ^1H Nuclear Magnetic Resonance (^1H NMR) for verification of TAG presence and examination of the purity of the extract (determination of level of chlorophyll).
# as §5, §6
# Nannochloropsis oculata [12] = assay: as above; assay type: cell-based
# Method: as §1, §2, §3, §4, §5, §6
# Nannochloris sp. [13] = assay: as above; assay type: cell-based
# Method: as §1, §2, §3, §4, §5, §6
# Nannochloropsis oculata [14] = assay: Lipid composition of batch culture extracts (fatty acid saturation / PUFA by 1H NMR, MALDI-TOF, GC/MS); assay type: cell-based
# microalgae [15] = assay: 500 mL batch culture (growth, gravimetric lipids), algae strain not stated; assay type: cell-based
# FABI = FABI (FAB1); cited from earlier work
# microalgae [16] = assay: Microplate assay (growth, Nile Red lipids), algae strain not stated; conditions: microplate screening; strain not given; listed as (−)-epigallocatechin gallate
# [17] = 200 nM, initial microplate screen, relative to control
# [18] = Nannochloris sp., compounds tested at 20 μM
# [19] = 40 μM, initial microplate screen, relative to control
# [20] = higher concentrations (>400 nM), microplate
# [21] = microplate assay, multiple concentrations
# [22] = 20 μM, initial microplate screen, relative to control
# [23] = 40 μM, 500 mL culture, day 6 in stationary phase
# [24] = 500 mL culture, 4 μM in water, two replicates
# Chain of CDK4/cyclin D1 (P11802 whole entry, species assumed): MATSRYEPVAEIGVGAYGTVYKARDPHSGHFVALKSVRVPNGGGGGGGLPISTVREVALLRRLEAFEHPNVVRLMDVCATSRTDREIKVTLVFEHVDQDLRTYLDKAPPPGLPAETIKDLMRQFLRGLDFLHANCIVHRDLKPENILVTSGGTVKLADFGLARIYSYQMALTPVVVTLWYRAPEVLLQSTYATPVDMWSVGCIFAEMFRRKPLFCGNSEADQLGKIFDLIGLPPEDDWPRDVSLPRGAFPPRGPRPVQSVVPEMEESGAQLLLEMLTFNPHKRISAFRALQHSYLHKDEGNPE
# Chain of CDK4/cyclin D1 (P24385 whole entry partner, species assumed): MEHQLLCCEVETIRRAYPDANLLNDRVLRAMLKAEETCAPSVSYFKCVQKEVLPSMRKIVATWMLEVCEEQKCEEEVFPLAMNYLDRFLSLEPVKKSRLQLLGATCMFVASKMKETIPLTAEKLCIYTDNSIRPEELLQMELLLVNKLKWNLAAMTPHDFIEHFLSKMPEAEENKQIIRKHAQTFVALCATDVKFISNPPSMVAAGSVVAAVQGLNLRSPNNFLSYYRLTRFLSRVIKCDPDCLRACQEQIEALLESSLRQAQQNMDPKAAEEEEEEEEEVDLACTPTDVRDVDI
# Chain of fatty acid amide hydrolase (O00519 whole entry): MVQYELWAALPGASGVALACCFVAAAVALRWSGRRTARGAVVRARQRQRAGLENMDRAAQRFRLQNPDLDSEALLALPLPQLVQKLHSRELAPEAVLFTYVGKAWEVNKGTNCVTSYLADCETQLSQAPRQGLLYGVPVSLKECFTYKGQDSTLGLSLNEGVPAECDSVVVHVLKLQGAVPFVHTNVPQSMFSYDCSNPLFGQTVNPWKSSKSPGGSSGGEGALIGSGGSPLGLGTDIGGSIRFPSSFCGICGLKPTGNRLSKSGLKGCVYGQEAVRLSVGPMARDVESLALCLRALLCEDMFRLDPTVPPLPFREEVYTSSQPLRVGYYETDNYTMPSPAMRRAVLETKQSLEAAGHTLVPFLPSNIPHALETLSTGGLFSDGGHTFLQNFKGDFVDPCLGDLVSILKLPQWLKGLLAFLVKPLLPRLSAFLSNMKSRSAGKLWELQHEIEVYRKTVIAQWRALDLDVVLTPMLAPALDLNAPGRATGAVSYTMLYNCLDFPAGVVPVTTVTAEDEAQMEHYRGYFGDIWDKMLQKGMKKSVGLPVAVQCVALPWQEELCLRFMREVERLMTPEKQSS
# Chain of histone lysine methyltransferase G9a (Q96KQ7 whole entry): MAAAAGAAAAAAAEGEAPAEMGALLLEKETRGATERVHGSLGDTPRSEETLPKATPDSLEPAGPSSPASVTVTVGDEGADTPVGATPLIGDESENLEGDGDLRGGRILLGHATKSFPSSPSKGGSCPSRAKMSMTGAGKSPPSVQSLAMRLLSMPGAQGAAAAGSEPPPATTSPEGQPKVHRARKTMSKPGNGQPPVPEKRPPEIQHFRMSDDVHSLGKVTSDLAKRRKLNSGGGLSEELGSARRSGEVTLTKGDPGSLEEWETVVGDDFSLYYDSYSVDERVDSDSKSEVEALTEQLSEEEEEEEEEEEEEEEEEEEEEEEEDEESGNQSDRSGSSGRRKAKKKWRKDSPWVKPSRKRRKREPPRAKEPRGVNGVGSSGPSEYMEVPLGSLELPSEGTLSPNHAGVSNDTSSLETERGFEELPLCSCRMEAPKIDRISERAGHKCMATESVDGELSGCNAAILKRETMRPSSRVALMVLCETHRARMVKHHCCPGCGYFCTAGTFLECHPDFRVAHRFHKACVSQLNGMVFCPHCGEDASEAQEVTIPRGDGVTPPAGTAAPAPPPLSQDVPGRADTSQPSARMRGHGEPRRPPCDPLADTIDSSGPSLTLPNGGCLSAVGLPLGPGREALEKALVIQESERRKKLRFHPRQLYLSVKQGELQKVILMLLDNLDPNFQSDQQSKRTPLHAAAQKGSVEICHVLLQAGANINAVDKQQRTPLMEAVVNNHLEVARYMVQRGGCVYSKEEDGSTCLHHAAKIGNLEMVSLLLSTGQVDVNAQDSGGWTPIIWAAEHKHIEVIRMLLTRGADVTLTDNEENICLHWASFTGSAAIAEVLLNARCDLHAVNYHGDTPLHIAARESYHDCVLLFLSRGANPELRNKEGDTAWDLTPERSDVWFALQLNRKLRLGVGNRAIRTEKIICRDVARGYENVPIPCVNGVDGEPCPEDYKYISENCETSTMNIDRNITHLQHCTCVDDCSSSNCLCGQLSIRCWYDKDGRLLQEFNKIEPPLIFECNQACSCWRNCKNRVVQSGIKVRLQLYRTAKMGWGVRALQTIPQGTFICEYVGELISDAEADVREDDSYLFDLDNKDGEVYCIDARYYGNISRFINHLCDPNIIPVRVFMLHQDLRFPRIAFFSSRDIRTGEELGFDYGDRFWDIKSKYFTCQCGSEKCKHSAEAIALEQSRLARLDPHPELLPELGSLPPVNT
# Chain of PTP1b (P18031 whole entry, species assumed): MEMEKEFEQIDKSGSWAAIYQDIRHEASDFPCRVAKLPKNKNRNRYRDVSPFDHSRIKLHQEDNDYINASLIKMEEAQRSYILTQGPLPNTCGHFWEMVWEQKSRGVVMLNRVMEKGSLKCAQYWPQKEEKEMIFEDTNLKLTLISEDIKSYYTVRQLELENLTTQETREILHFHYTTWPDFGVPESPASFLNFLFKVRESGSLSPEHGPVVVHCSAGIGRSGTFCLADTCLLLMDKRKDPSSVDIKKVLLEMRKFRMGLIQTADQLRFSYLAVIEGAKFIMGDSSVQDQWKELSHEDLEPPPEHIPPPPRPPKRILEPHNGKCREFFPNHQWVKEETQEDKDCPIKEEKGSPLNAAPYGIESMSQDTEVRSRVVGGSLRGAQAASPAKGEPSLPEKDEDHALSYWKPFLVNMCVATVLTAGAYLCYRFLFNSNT
compound,measurement,setting,value
"COC(=O)C=Cc1cc(O)ccc1O [Erbstatin analog, 2,5-Dihydroxymethylcinnamate]",Absorbance (percent increase),Nannochloris sp. [1]; [17],−7.6%
same,Nile Red percent increase,Nannochloris sp. [1]; [17],90.7%
same,Nile Red Fluorescence % Increase,"Nannochloris sp. [1]; Nannochloris sp., compounds tested at 200 nM",80.2%
same,Nile Red Fluorescence % Increase,Nannochloris sp. [1]; [18],40.5%
same,IC50,[2],2820 nM
"CCCCCCCCCCCCCCCCCCOCC(COP(=O)([O-])OCC[N+](C)(C)C)OC (stereo not shown) [ET-18-OCH3, 2-Methoxy-3-(octadecyloxy)propyl 2-(trimethylammonio)ethyl phosphate]",% change in abs,"Nannochloropsis oculata [3]; N. oculata, 10 μM",5.73%
same,% in NR fl,"Nannochloropsis oculata [3]; N. oculata, 10 μM",50.05%
same,% change in abs,"Nannochloropsis oculata [3]; N. oculata, 40 μM",−5.90%
same,% in NR fl,"Nannochloropsis oculata [3]; N. oculata, 40 μM",57.25%
same,IC50,[4],9600 nM
O=C([O-])O.[Na+] [sodium bicarbonate],effect on PUFA levels,[5],increases PUFA levels
"NC(=O)c1ncn([C@@H]2O[C@H](COP(=O)(O)O)[C@@H](O)[C@H]2O)c1N [AICAR, [(2R,3S,4R,5R)-5-(4-Carbamoyl-5-amino-imidazol-1-yl)-3,4-dihydroxyoxolan-2-yl]methyl dihydrogen phosphate]",Lipid productivity,[6]; 120 nM,7.0 ± 0.9 mgL^−1day^−1
same,Lipid content,[6]; 120 nM,22.7 ± 1.3 % w/w
same,Change in Lipids,[6]; 120 nM,45%
same,Specific Growth Rate,[6]; 120 nM,0.34 ± 0.04 day⁻¹
same,inhibitor of fatty acid and sterol synthesis (concentration),[7],"synthesis (0.5 mM), inactivates HMG-CoA reductase"
"CCCCNC(=O)Oc1ccc(OCc2ccccc2)cc1 [FAAH Inhibitor I, 4-Benzyloxyphenyl-n-butylcarbamate]",% Lipid increase based on Nile red fluorescence intensity,"Nannochloris sp. [1]; Nannochloris sp., 0.6 nM, (water), t=day 0",189%
same,% Increase based on Nile Red Fluorescence Intensity,"Nannochloris sp. [1]; Nannochloris sp., 0.6 nM",189%
same,% Increase based on Nile Red Fluorescence Intensity,"Nannochloris sp. [1]; Nannochloris sp., 49 nM",160%
same,% Increase based on Nile Red Fluorescence Intensity,"Nannochloris sp. [1]; Nannochloris sp., 440 nM",161%
same,% Increase based on Nile Red Fluorescence Intensity,"Nannochloris sp. [1]; Nannochloris sp., 1.3 μM",152%
same,IC50,[8],396 nM
"O=C1NC(=O)c2c1c1c3ccccc3[nH]c1c1[nH]c3cc(Br)ccc3c21 [CDK4 Inhibitor 3, 2-Bromo-12,13-dihydro-5H-indolo[2,3a]pyrrolo[3,4-c]carbazole-5,7(6H)-dione]",IC50,Cdk2/cyclin A,> 200000 nM
same,IC50,CDK4/cyclin D1; CDK4/D1,6000 nM
COc1ccc(OC)c2c(=S)c3ccccc3[nH]c12 [CDK4 Inhibitor II NSC],IC50,CDK4/cyclin D1; CDK4/cyclin D1,200 nM
"CCN(NO)C1=CC(=O)C(=O)C=C1 [Ethyl 3,4-dephostatin, 4-[(hydroxyamino)-ethylamino]cyclohexa-3,5-diene-1,2-dione]",Absorbance (percent increase),[9]; [19],−2.4%
same,Nile Red percent increase,[9]; [19],115.0%
same,% increase (lipid production),[9]; 0.0252-165.6 nM (H2O),8-106%
same,% increase (lipid production),[9]; 2-18.4 nM,3-67%
same,% increase (lipid production),Nannochloropsis salina [10]; 0.0252-165.6 nM (H2O),8-61%
same,% increase (lipid production),"Nannochloropsis salina [10]; 0.0252-165.6 nM, not marked H2O",8-20%
same,% increase (lipid production),"Nannochloropsis oculata [3]; 0.0252-165.6, concentrations giving an increase: (none)",(none)
same,IC50,PTP1b,3200 nM
"O=C(O[C@@H]1Cc2c(O)cc(O)cc2O[C@@H]1c1cc(O)c(O)c(O)c1)c1cc(O)c(O)c(O)c1 [EGCG, [(2R,3R)-5,7-dihydroxy-2-(3,4,5-trihydroxy-phenyl)-3,4-dihydro-2H-chromen-3-yl] 3,4,5-trihydroxybenzoate]",lipid increase,[9]; [20],> 100%
same,% Inc,"[9]; increase of lipid production, P. tricornutum, best conc. 10 nM",45.03%
same,effect on lipid production / lipid levels,[9]; [21],lipid production increased
same,Nile Red percent increase,"Nannochloris sp. [1]; 6 nM, dose-response microplate screen",436%
same,Nile Red percent increase,"Nannochloris sp. [1]; 18.6 nM, dose-response microplate screen",199%
same,Nile Red percent increase,"Nannochloris sp. [1]; 55 nM, dose-response microplate screen",107%
same,Absorbance (percent increase),Nannochloris sp. [1]; [17],−1.0%
same,Nile Red percent increase,Nannochloris sp. [1]; [17],92.1%
same,Absorbance (percent increase),Nannochloris sp. [1]; [22],+1.9%
same,Nile Red percent increase,Nannochloris sp. [1]; [22],92.5%
same,Nile Red Fluorescence % Increase,Nannochloris sp. [1]; [18],214.9%
same,lipid increase,Nannochloris sp. [1]; [20],> 100%
same,effect on lipid production / lipid levels,Nannochloris sp. [1]; [21],lipid production increased
same,Lipid productivity,"[6]; 4 μM in water, two replicates",4.4 ± 2.4 mgL^−1day^−1
same,Lipid content,"[6]; 4 μM in water, two replicates",17.2 ± 1.3 % w/w
same,Change in Lipids,"[6]; 4 μM in water, two replicates",6%
same,Specific Growth Rate,"[6]; 4 μM in water, two replicates",0.19 ± 0.02 day⁻¹
same,Absorbance at harvest,Nannochloropsis salina [11]; [23],1.41 ± 0.08
same,Dry weight,Nannochloropsis salina [11]; [23],337.40 ± 62.55 mg
same,Extract Weight,Nannochloropsis salina [11]; [23],94.77 ± 9.47 mg
same,Number of Cells,Nannochloropsis salina [11]; [23],1.36E+09
same,Recovered Weight,Nannochloropsis salina [11]; [23],330.03 ± 78.14 mg
same,effect on growth and lipid levels,Nannochloropsis salina [11]; 500 mL batch culture,increased growth and lipid extract levels
same,Lipid productivity,Nannochloropsis salina [11]; [24],7.1 ± 1.2 mgL^−1day^−1
same,Lipid content,Nannochloropsis salina [11]; [24],32.4 ± 0.1 % w/w
same,Change in Lipids,Nannochloropsis salina [11]; [24],46%
same,Specific Growth Rate,Nannochloropsis salina [11]; [24],0.24 ± 0.01 day⁻¹
same,Lipid productivity,"Nannochloropsis salina [11]; 500 mL culture, 40 μM",6.3 ± 2.2 mgL^−1day^−1
same,Lipid content,"Nannochloropsis salina [11]; 500 mL culture, 40 μM",23.1 ± 10.6 % w/w
same,Change in Lipids,"Nannochloropsis salina [11]; 500 mL culture, 40 μM",18%
same,Specific Growth Rate,"Nannochloropsis salina [11]; 500 mL culture, 40 μM",0.22 ± 0.06 day⁻¹
same,effect on growth and lipid levels,Nannochloropsis oculata [12]; 500 mL batch culture,increased growth and lipid extract levels
same,Absorbance at harvest,"Nannochloropsis oculata [12]; N. oculata, 400 nM EGCG, n=4",1.855 ± 0.142
same,Dry weight,"Nannochloropsis oculata [12]; N. oculata, 400 nM EGCG, n=4",290.7 ± 34.5
same,Extract Weight,"Nannochloropsis oculata [12]; N. oculata, 400 nM EGCG, n=4",62.3 ± 21.6
same,Lipid productivity,"Nannochloropsis oculata [12]; N. oculata, 500 mL culture, 4 μM",4.9 ± 1.7 mgL^−1day^−1
same,Lipid content,"Nannochloropsis oculata [12]; N. oculata, 500 mL culture, 4 μM, dried lipid extract per dry biomass",20.6 ± 6.9 % w/w
same,Change in Lipids,"Nannochloropsis oculata [12]; N. oculata, 500 mL culture, 4 μM, gravimetric, relative to averaged control without DMSO",41%
same,Specific Growth Rate,"Nannochloropsis oculata [12]; N. oculata, 500 mL culture, 4 μM, mid-exponential growth phase",0.17 ± 0.03 day⁻¹
same,effect on lipid levels,"Nannochloropsis oculata [12]; batch culture, combined with sodium bicarbonate addition",increases lipid levels
same,effect on growth and lipid levels,Nannochloris sp. [13]; 500 mL batch culture,increased growth and lipid extract levels
same,Lipid productivity,"Nannochloris sp. [13]; Nannochloris sp., 500 mL culture, 40 nM",4.3 ± 0.8 mgL^−1day^−1
same,Change in Lipids,"Nannochloris sp. [13]; Nannochloris sp., 500 mL culture, 40 nM, gravimetric, relative to averaged control without DMSO",39%
same,Specific Growth Rate,"Nannochloris sp. [13]; Nannochloris sp., 500 mL culture, 40 nM, mid-exponential growth phase",0.17 ± 0.03 day⁻¹
same,SFAs (% of total lipids),"Nannochloropsis oculata [14]; 4 μM, 1H NMR, Normal 24",57 % of total lipids
same,n3 PUFAs (% of UFAs),"Nannochloropsis oculata [14]; 4 μM, 1H NMR, Normal 37",65 % of UFAs
same,All other PUFAs and MUFAs (% of UFAs),"Nannochloropsis oculata [14]; 4 μM, 1H NMR, Normal 63",35 % of UFAs
same,UFAs (% of total lipids),"Nannochloropsis oculata [14]; 4 μM, 1H NMR, Normal 76",43 % of total lipids
same,SFAs (%),"Nannochloropsis oculata [14]; N. oculata, 400 nM, n=1, Normal 0 ± 1",10%
same,MUFAs (%),"Nannochloropsis oculata [14]; N. oculata, 400 nM, n=1, Normal 4 ± 7",5%
same,n3 PUFAs (%),"Nannochloropsis oculata [14]; N. oculata, 400 nM, n=1, Normal 28 ± 4",20%
same,PUFAs (%),"Nannochloropsis oculata [14]; N. oculata, 400 nM, n=1, Normal 96 ± 7",85%
same,effect on growth and lipid levels,microalgae [15]; 500 mL batch cultures (Table 30),positive increases in growth and lipid levels
same,increase of lipids by dry weight,microalgae [15]; 500 mL cultures (FIG. 19),> 40%
same,% Increase based on Nile Red Fluorescence Intensity,"Nannochloropsis salina [10]; N. salina, 493 nM, DMSO delivery, added t=day 0",87%
same,lipid increase,Nannochloropsis salina [10]; [20],> 100%
same,effect on lipid production / lipid levels,Nannochloropsis salina [10]; [21],lipid production increased
same,Nile Red Fluorescence % Increase,"Nannochloropsis oculata [3]; N. oculata, compounds tested at 200 nM, initial screening, p<0.05",207.5%
same,effect on lipid production / lipid levels,Nannochloropsis oculata [3]; [21],lipid production increased
same,IC50,FABI,200 nM
same,"increase in (intracellular) lipid levels, Nile Red",microalgae [16],more than 100%
